The supplement of paper PMC10307832

Experiments:
Assay in all cases: relative viability (nuclei count vs DMSO), 5 days (fraction); higher = more cells survive
[1] = compound: CC1=C(C=CC(=C1)[N+](=O)[O-])NS(=O)(=O)C2=C(C=CC(=C2)Cl)Cl [FH535] + Cc1cc(Nc2cc(N3CCN(C)CC3)nc(Sc3ccc(NC(=O)C4CC4)cc3)n2)n[nH]1 [Tozasertib] (partner 0.1 µM)
In short: (§1)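 Lung cancer cell lines, seeded in 1536-well plates, were treated the following day by pin tool with a single drug or with five library-drug doses (not always all listed) in √10 steps on top of a fixed anchor-drug dose. Cells were fixed and nuclei stained in one step after 5 days, and nuclei were counted. Relative viability is the nuclei count for treated wells divided by that for vehicle wells, reported as medians of duplicate plates.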

[2] = compound: CC1=C(C=CC(=C1)[N+](=O)[O-])NS(=O)(=O)C2=C(C=CC(=C2)Cl)Cl [FH535] + COc1cc2c(Oc3ccc(NC(=O)C4(C(=O)Nc5ccc(F)cc5)CC4)cc3F)ccnc2cc1OCCCN1CCOCC1 [Foretinib] (partner 0.25 µM)
In short: as §1

[3] = compound: CC1=C(C=CC(=C1)[N+](=O)[O-])NS(=O)(=O)C2=C(C=CC(=C2)Cl)Cl [FH535] + Nc1ncn([C@H]2C[C@H](O)[C@@H](CO)O2)c(=O)n1 [Decitabine] (partner 2 µM)
In short: as §1

[4] = compound: CC1=C(C=CC(=C1)[N+](=O)[O-])NS(=O)(=O)C2=C(C=CC(=C2)Cl)Cl [FH535] + Cc1nc(Nc2ncc(C(=O)Nc3c(C)cccc3Cl)s2)cc(N2CCN(CCO)CC2)n1 [Dasatinib] (partner 0.075 µM)
In short: as §1

[5] = compound: CC1=C(C=CC(=C1)[N+](=O)[O-])NS(=O)(=O)C2=C(C=CC(=C2)Cl)Cl [FH535] + CC1(C)CCC(c2ccc(Cl)cc2)=C(CN2CCN(c3ccc(C(=O)NS(=O)(=O)c4ccc(N[C@H](CCN5CCOCC5)CSc5ccccc5)c(S(=O)(=O)C(F)(F)F)c4)cc3)CC2)C1 [Navitoclax] (partner 0.5 µM)
In short: as §1

Row | Cell Line | relative viability ([1]; first compound 0.04 µM) | relative viability ([1]; first compound 0.1265 µM) | relative viability ([1]; first compound 0.4 µM) | relative viability ([1]; first compound 1.265 µM) | relative viability ([2]; first compound 0.04 µM) | relative viability ([2]; first compound 0.1265 µM) | relative viability ([2]; first compound 0.4 µM) | relative viability ([2]; first compound 1.265 µM) | relative viability ([3]; first compound 0.04 µM) | relative viability ([3]; first compound 0.1265 µM) | relative viability ([3]; first compound 0.4 µM) | relative viability ([3]; first compound 1.265 µM) | relative viability ([4]; first compound 0.04 µM) | relative viability ([4]; first compound 0.1265 µM) | relative viability ([4]; first compound 0.4 µM) | relative viability ([4]; first compound 1.265 µM) | relative viability ([5]; first compound 0.04 µM) | relative viability ([5]; first compound 0.1265 µM) | relative viability ([5]; first compound 0.4 µM) | relative viability ([5]; first compound 1.265 µM)
1 | HCC-366 | 0.0788 | 0.106 | 0.123 | 0.0854 | 0.648 | 1.06 | 0.958 | 0.516 | 0.308 | 0.342 | 0.335 | 0.293 | 0.571 | 0.713 | 0.632 | 0.487 | 0.942 | 1.08 | 0.995 | 0.976
2 | HCC-827 | 0.425 | 0.452 | 0.433 | 0.347 | 1.03 | 1.07 | 0.975 | 0.587 | 0.297 | 0.334 | 0.323 | 0.296 | 0.35 | 0.291 | 0.273 | 0.364 | 0.994 | 1.08 | 0.973 | 0.732
3 | HOP-62 | 0.407 | 0.362 | 0.348 | 0.412 | 1.06 | 1.04 | 1.03 | 0.933 | 0.232 | 0.196 | 0.23 | 0.227 | 0.604 | 0.571 | 0.533 | 0.57 | 0.997 | 1.08 | 0.916 | 0.779
4 | IA-LM |  |  |  |  | 1.21 | 1.21 | 1.08 | 0.701 |  |  |  |  |  |  |  |  | 0.917 | 0.621 | 0.593 | 0.496
5 | LC-2-ad | 0.437 | 0.439 | 0.578 | 0.457 | 0.807 | 0.981 | 0.872 | 0.853 | 0.773 | 0.892 | 0.764 | 0.713 | 0.417 | 0.571 | 0.437 | 0.409 | 0.34 | 0.491 | 0.549 | 0.325
6 | LCLC-97TM1 | 0.229 | 0.284 | 0.282 | 0.161 | 0.854 | 0.949 | 1.03 | 0.679 | 0.247 | 0.273 | 0.247 | 0.187 | 0.726 | 0.797 | 0.811 | 0.77 |  | 0.446 | 0.392 | 0.304
7 | LCLC-103H | 0.417 | 0.521 | 0.516 | 0.453 | 0.789 | 0.755 | 0.776 | 0.551 | 0.672 | 0.787 | 0.718 | 0.503 | 0.441 | 0.369 | 0.353 | 0.384 |  |  |  | 
8 | LK-2 | 0.166 | 0.172 | 0.169 | 0.201 | 1.23 | 1.33 | 1.39 | 1.11 | 0.254 | 0.26 | 0.298 | 0.286 | 0.308 | 0.248 | 0.294 | 0.327 | 0.788 | 0.855 | 1 | 1.06
9 | LOU-NH91 | 0.634 | 0.68 | 0.633 | 0.33 | 0.99 | 0.952 | 0.91 | 0.474 | 0.759 | 0.823 | 0.788 | 0.64 | 0.573 | 0.613 | 0.388 | 0.267 | 0.602 | 0.736 | 0.695 | 0.233
10 | NCI-H358 | 0.0899 | 0.0929 | 0.104 | 0.0851 | 0.647 | 0.727 | 0.63 | 0.481 | 0.151 | 0.219 | 0.205 | 0.182 | 0.141 | 0.15 | 0.159 | 0.143 |  |  |  | 
11 | NCI-H522 | 0.529 | 0.502 | 0.601 | 0.534 |  |  |  |  | 0.588 | 0.697 | 0.712 | 0.698 | 0.882 | 0.862 | 0.827 | 0.979 |  |  |  | 
12 | NCI-H650 | 0.603 | 0.783 | 0.766 | 0.51 | 0.927 | 1.05 | 1.01 | 0.788 | 0.315 | 0.359 | 0.333 | 0.32 | 0.4 | 0.462 | 0.429 | 0.309 |  |  |  | 
13 | NCI-H661 | 0.365 | 0.339 | 0.346 | 0.332 | 1.01 | 0.947 | 0.92 | 0.671 | 0.546 | 0.609 | 0.566 | 0.46 | 0.704 | 0.994 | 0.615 | 0.475 |  |  |  | 
14 | NCI-H1563 |  |  |  |  | 0.909 | 0.825 | 0.994 | 0.874 |  |  |  |  | 0.445 | 0.495 | 0.508 | 0.435 |  |  |  | 
15 | NCI-H1703 |  |  |  |  | 0.416 |  | 0.324 | 0.344 |  |  |  |  |  |  |  |  | 1.28 | 1.18 | 1.21 | 0.88
16 | NCI-H1792 |  |  |  |  |  |  |  |  | 0.564 | 0.523 | 0.506 | 0.457 | 0.661 | 0.761 | 0.701 | 0.543 | 0.611 | 0.673 | 0.587 | 0.377
17 | NCI-H2228 | 0.238 | 0.244 | 0.305 | 0.215 | 0.752 | 0.87 | 0.707 | 0.936 |  |  |  |  | 0.49 | 0.502 | 0.552 | 0.402 | 0.826 | 1.1 | 0.841 | 0.728
18 | NCI-H2342 | 0.541 | 0.564 | 0.445 | 0.454 | 1.19 | 1.09 | 1.04 | 0.792 | 0.706 | 0.632 | 0.736 | 0.568 | 0.305 | 0.339 | 0.281 | 0.297 |  |  |  | 
19 | SW 900 | 0.535 | 0.525 | 0.536 | 0.484 | 0.745 | 0.94 | 0.764 | 0.541 | 0.443 | 0.547 | 0.418 | 0.418 | 0.481 | 0.748 | 0.507 | 0.63 |  |  |  | 
